What was measured:
[1] = target: Phosphorylase b kinase gamma catalytic chain, liver/testis isoform (Homo sapiens) (UniProt P15735); test: Inhibition of PHKG2 assessed as enzyme activity at 1 uM relative to untreated control; parameters: scale not given: the % may be the effect or the level left
[2] = target: Insulin-like growth factor 1 receptor (Homo sapiens) (UniProt P08069); test: Inhibition of IGF1R assessed as enzyme activity at 1 uM relative to untreated control; parameters: scale not given: the % may be the effect or the level left
[3] = target: Mitogen-activated protein kinase kinase kinase kinase 2 (Homo sapiens) (UniProt Q12851); test: Inhibition of MAP4K2 assessed as enzyme activity at 1 uM relative to untreated control; parameters: scale not given: the % may be the effect or the level left
[4] = target: Serine/threonine-protein kinase 4 (Homo sapiens) (UniProt Q13043); test: Inhibition of MST1 assessed as enzyme activity at 1 uM relative to untreated control; parameters: scale not given: the % may be the effect or the level left
[5] = target: Calcium/calmodulin-dependent protein kinase kinase 2 (Homo sapiens) (UniProt Q96RR4); test: Inhibition of CAMKK2 assessed as enzyme activity at 1 uM relative to untreated control; parameters: scale not given: the % may be the effect or the level left
[6] = Volume of distribution at steady state in CD1 mouse; assay type: ADME, organism-based; details: in vivo, read-out: Vdss
[7] = target: Atypical kinase COQ8B, mitochondrial (Homo sapiens) (UniProt Q96D53); test: Inhibition of ADCK4 assessed as enzyme activity at 1 uM relative to untreated control; parameters: scale not given: the % may be the effect or the level left
[8] = target: cGMP-dependent protein kinase 2 (Homo sapiens) (UniProt Q13237); test: Inhibition of PRKG2 assessed as enzyme activity at 1 uM relative to untreated control; parameters: scale not given: the % may be the effect or the level left
[9] = target: RAF proto-oncogene serine/threonine-protein kinase (Homo sapiens) (UniProt P04049); test: Inhibition of RAF1 assessed as enzyme activity at 1 uM relative to untreated control; parameters: scale not given: the % may be the effect or the level left
[10] = target: Tyrosine-protein kinase Fes/Fps (Homo sapiens) (UniProt P07332); test: Inhibition of FES assessed as enzyme activity at 1 uM relative to untreated control; parameters: scale not given: the % may be the effect or the level left
[11] = target: Myosin-IIIa (Homo sapiens) (UniProt Q8NEV4); test: Inhibition of MYO3A assessed as enzyme activity at 1 uM relative to untreated control; parameters: scale not given: the % may be the effect or the level left
[12] = target: Mitogen-activated protein kinase kinase kinase 7 (Homo sapiens) (UniProt O43318); test: Inhibition of TAK1 assessed as enzyme activity at 1 uM relative to untreated control; parameters: scale not given: the % may be the effect or the level left
[13] = target: Ribosomal protein S6 kinase alpha-5 (Homo sapiens) (UniProt O75582); test: Inhibition of RPS6KA5 kinase domain 1 assessed as enzyme activity at 1 uM relative to untreated control; parameters: scale not given: the % may be the effect or the level left
[14] = target: Mitogen-activated protein kinase 7 (Homo sapiens) (UniProt Q13164); test: Inhibition of ERK5 assessed as enzyme activity at 1 uM relative to untreated control; parameters: scale not given: the % may be the effect or the level left
[15] = target: Ephrin type-B receptor 3 (Homo sapiens) (UniProt P54753); test: Inhibition of EPHB3 assessed as enzyme activity at 1 uM relative to untreated control; parameters: scale not given: the % may be the effect or the level left
[16] = target: Cyclin-dependent kinase 11A (Homo sapiens) (UniProt Q9UQ88); test: Inhibition of CDC2L2 assessed as enzyme activity at 1 uM relative to untreated control; parameters: scale not given: the % may be the effect or the level left
[17] = target: Serine/threonine-protein kinase D2 (Homo sapiens) (UniProt Q9BZL6); test: Inhibition of PRKD2 assessed as enzyme activity at 1 uM relative to untreated control; parameters: scale not given: the % may be the effect or the level left
[18] = target: Receptor-interacting serine/threonine-protein kinase 1 (Homo sapiens) (UniProt Q13546); test: Inhibition of RIPK1 assessed as enzyme activity at 1 uM relative to untreated control; parameters: scale not given: the % may be the effect or the level left
[19] = target: Tyrosine-protein kinase JAK1 (Homo sapiens) (UniProt P23458); test: Inhibition of JAK1 kinase domain 2 assessed as enzyme activity at 1 uM relative to untreated control; parameters: scale not given: the % may be the effect or the level left
Mus musculus = test: Inhibition of ERK phosphorylation in human A375 SQ2 cells xenografted CD1 mouse at 2 mg/kg, po qd after 6 hrs; assay type: functional; details: CD1, A-375, 6 h
[20] = target: Serine/threonine-protein kinase PAK 6 (Homo sapiens) (UniProt Q9NQU5); test: Inhibition of PAK6 assessed as enzyme activity at 1 uM relative to untreated control; parameters: scale not given: the % may be the effect or the level left
[21] = target: Casein kinase I isoform gamma-3 (Homo sapiens) (UniProt Q9Y6M4); test: Inhibition of CSNK1G3 assessed as enzyme activity at 1 uM relative to untreated control; parameters: scale not given: the % may be the effect or the level left
[22] = target: Calcium/calmodulin-dependent protein kinase type 1G (Homo sapiens) (UniProt Q96NX5); test: Inhibition of CAMK1G assessed as enzyme activity at 1 uM relative to untreated control; parameters: scale not given: the % may be the effect or the level left
[23] = target: Protein kinase C epsilon type (Homo sapiens) (UniProt Q02156); test: Inhibition of PRKCE assessed as enzyme activity at 1 uM relative to untreated control; parameters: scale not given: the % may be the effect or the level left
[24] = target: Tyrosine-protein kinase ABL2 (Homo sapiens) (UniProt P42684); test: Inhibition of ABL2 assessed as enzyme activity at 1 uM relative to untreated control; parameters: scale not given: the % may be the effect or the level left
[25] = Oral bioavailability in Sprague-Dawley rat at 5 mg/kg; assay type: ADME, organism-based; details: in vivo
[26] = target: Serine/threonine-protein kinase MRCK gamma (Homo sapiens) (UniProt Q6DT37); test: Inhibition of DMPK2 assessed as enzyme activity at 1 uM relative to untreated control; parameters: scale not given: the % may be the effect or the level left
[27] = test system: Epidermal growth factor receptor (Homo sapiens), P00533 [L861Q]; test: Inhibition of EGFR L861Q mutant assessed as enzyme activity at 1 uM relative to untreated control; assay type: protein assay; parameters: scale not given: the % may be the effect or the level left
[28] = target: Ribosomal protein S6 kinase alpha-5 (Homo sapiens) (UniProt O75582); test: Inhibition of RPS6KA5 kinase domain 2 assessed as enzyme activity at 1 uM relative to untreated control; parameters: scale not given: the % may be the effect or the level left
[29] = target: Receptor-type tyrosine-protein kinase FLT3 (Homo sapiens) (UniProt P36888); test: Inhibition of FLT3 assessed as enzyme activity at 1 uM relative to untreated control; parameters: scale not given: the % may be the effect or the level left
[30] = target: Ephrin type-B receptor 4 (Homo sapiens) (UniProt P54760); test: Inhibition of EPHB4 assessed as enzyme activity at 1 uM relative to untreated control; parameters: scale not given: the % may be the effect or the level left
[31] = target: Myosin-IIIb (Homo sapiens) (UniProt Q8WXR4); test: Inhibition of MYO3B assessed as enzyme activity at 1 uM relative to untreated control; parameters: scale not given: the % may be the effect or the level left
[32] = Volume of distribution at steady state in Sprague-Dawley rat at 2 mg/kg, iv and 5 mg/kg, po; assay type: ADME, organism-based; details: in vivo, read-out: Vdss
[33] = target: Serine/threonine-protein kinase 26 (Homo sapiens) (UniProt Q9P289); test: Inhibition of MST4 assessed as enzyme activity at 1 uM relative to untreated control; parameters: scale not given: the % may be the effect or the level left
[34] = target: Protein kinase C theta type (Homo sapiens) (UniProt Q04759); test: Inhibition of PRKCQ assessed as enzyme activity at 1 uM relative to untreated control; parameters: scale not given: the % may be the effect or the level left
[35] = target: Mitogen-activated protein kinase 12 (Homo sapiens) (UniProt P53778); test: Inhibition of p38-gamma assessed as enzyme activity at 1 uM relative to untreated control; parameters: scale not given: the % may be the effect or the level left
[36] = target: Serine/threonine-protein kinase MARK2 (Homo sapiens) (UniProt Q7KZI7); test: Inhibition of MARK2 assessed as enzyme activity at 1 uM relative to untreated control; parameters: scale not given: the % may be the effect or the level left
[37] = target: Serine/threonine-protein kinase PLK4 (Homo sapiens) (UniProt O00444); test: Inhibition of PLK4 assessed as enzyme activity at 1 uM relative to untreated control; parameters: scale not given: the % may be the effect or the level left
[38] = target: Dual specificity mitogen-activated protein kinase kinase 2 (Homo sapiens) (UniProt P36507); test: Inhibition of MEK2 assessed as enzyme activity at 1 uM relative to untreated control; parameters: scale not given: the % may be the effect or the level left

Sequence of Ribosomal protein S6 kinase alpha-5 (Homo sapiens) (O75582 whole entry, looked up, the tested form may be a part): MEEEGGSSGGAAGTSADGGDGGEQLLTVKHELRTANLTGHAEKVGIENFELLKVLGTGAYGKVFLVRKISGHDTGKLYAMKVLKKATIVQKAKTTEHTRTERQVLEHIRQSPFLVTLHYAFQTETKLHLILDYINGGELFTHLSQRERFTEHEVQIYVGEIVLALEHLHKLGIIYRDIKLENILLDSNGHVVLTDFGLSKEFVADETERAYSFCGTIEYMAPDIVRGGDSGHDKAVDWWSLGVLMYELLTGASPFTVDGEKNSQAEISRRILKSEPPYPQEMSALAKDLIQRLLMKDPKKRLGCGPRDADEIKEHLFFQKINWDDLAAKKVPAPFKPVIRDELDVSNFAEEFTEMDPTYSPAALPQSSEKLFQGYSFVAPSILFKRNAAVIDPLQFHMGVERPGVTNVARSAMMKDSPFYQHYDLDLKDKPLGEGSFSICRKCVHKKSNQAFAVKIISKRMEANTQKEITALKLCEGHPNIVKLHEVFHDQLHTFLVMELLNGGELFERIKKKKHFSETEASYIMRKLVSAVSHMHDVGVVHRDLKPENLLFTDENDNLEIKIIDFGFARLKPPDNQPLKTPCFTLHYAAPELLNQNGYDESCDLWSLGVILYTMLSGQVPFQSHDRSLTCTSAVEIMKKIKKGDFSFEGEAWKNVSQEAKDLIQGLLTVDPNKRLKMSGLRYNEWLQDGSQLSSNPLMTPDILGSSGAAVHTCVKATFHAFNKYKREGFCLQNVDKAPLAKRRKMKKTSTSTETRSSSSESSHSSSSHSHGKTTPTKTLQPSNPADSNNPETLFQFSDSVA
Sequence of Atypical kinase COQ8B, mitochondrial (Homo sapiens) (Q96D53 whole entry): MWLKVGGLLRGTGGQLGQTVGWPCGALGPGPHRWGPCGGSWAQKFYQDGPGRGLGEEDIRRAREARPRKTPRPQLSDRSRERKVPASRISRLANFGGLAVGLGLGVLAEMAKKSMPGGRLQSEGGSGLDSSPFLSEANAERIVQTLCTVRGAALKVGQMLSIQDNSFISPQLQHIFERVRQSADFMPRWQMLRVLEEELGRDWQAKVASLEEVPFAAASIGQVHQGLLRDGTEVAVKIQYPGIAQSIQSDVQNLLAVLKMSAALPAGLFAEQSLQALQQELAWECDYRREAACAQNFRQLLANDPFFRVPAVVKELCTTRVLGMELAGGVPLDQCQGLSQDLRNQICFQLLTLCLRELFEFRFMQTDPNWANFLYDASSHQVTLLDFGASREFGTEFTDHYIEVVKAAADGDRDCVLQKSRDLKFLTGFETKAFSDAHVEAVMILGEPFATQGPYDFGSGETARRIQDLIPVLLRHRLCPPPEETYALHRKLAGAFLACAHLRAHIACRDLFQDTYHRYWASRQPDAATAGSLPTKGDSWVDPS
Sequence of Tyrosine-protein kinase ABL2 (Homo sapiens) (P42684 whole entry): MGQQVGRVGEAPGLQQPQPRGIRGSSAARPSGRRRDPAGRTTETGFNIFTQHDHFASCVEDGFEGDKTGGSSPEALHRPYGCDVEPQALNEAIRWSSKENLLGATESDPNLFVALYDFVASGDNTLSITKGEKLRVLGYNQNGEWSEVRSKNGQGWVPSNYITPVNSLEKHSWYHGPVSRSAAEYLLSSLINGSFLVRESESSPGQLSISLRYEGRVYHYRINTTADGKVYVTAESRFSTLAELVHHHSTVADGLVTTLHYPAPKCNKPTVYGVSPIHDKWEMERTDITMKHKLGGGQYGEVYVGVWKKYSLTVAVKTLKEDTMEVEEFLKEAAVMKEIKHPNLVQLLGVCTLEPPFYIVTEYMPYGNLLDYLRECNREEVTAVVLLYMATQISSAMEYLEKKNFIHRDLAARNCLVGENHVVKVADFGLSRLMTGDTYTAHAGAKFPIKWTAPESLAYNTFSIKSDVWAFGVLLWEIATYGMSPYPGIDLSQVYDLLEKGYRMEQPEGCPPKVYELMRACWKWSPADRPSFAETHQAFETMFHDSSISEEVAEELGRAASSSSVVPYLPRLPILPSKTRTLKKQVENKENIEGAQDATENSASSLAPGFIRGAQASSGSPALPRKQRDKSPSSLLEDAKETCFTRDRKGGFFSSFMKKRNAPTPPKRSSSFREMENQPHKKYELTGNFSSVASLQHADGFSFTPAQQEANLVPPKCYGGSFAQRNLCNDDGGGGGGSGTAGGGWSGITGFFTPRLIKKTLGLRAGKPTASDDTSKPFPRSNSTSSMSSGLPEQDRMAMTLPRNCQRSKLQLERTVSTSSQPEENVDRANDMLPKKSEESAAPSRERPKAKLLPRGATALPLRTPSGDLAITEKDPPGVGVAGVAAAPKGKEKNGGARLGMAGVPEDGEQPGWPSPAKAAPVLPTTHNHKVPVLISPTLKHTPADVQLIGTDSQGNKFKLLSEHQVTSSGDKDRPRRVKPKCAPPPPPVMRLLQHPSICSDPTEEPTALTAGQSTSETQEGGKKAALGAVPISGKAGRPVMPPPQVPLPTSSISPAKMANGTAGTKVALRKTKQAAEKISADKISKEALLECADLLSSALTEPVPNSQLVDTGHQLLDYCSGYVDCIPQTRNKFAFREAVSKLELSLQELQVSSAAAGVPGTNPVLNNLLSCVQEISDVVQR
Sequence of Serine/threonine-protein kinase D2 (Homo sapiens) (Q9BZL6 whole entry): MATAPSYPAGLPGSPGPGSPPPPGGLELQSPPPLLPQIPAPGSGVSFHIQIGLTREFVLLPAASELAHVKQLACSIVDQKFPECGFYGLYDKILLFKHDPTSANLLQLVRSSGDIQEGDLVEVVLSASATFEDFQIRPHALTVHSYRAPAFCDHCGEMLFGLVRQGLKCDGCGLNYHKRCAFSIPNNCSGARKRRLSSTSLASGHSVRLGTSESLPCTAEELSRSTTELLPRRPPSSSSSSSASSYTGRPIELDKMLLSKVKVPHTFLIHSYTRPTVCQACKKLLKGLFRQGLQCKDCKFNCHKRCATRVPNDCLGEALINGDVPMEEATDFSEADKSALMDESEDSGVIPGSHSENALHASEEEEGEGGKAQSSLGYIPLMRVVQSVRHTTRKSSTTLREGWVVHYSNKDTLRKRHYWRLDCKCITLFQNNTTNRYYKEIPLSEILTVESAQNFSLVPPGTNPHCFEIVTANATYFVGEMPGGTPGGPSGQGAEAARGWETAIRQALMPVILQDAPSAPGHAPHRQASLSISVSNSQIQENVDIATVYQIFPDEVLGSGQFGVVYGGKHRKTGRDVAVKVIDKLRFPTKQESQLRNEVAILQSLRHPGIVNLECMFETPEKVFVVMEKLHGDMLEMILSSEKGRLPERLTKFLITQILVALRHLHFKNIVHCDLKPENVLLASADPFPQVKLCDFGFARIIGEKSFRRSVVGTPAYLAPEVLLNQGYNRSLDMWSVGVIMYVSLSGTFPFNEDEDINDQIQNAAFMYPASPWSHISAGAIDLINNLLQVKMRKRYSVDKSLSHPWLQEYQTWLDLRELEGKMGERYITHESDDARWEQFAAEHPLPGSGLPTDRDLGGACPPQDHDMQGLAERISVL
Sequence of Serine/threonine-protein kinase 4 (Homo sapiens) (Q13043 whole entry): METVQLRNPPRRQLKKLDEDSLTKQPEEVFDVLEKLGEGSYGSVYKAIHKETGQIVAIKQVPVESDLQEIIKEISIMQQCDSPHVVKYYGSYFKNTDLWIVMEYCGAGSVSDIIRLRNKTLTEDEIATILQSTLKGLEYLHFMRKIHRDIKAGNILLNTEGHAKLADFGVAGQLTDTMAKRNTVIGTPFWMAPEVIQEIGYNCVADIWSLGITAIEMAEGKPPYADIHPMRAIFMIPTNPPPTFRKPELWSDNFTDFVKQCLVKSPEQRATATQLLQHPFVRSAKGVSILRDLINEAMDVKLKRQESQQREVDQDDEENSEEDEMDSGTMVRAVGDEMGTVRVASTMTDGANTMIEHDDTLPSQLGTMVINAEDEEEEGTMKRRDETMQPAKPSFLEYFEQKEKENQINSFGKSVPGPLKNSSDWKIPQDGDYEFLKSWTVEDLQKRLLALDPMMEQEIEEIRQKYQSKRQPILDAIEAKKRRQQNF
Sequence of Casein kinase I isoform gamma-3 (Homo sapiens) (Q9Y6M4 whole entry, looked up, canonical isoform): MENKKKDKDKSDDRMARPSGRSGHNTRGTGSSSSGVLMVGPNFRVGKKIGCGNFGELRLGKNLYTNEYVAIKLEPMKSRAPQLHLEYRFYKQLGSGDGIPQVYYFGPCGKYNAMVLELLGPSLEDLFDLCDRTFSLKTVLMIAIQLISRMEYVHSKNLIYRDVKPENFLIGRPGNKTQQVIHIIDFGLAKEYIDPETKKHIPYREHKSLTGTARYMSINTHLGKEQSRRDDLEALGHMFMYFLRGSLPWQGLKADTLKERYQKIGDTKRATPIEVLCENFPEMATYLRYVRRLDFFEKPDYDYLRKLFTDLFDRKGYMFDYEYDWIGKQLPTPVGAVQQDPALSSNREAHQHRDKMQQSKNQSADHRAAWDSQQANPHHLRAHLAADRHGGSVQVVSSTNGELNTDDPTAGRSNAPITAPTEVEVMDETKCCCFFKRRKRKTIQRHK
Sequence of Mitogen-activated protein kinase 12 (Homo sapiens) (P53778 whole entry): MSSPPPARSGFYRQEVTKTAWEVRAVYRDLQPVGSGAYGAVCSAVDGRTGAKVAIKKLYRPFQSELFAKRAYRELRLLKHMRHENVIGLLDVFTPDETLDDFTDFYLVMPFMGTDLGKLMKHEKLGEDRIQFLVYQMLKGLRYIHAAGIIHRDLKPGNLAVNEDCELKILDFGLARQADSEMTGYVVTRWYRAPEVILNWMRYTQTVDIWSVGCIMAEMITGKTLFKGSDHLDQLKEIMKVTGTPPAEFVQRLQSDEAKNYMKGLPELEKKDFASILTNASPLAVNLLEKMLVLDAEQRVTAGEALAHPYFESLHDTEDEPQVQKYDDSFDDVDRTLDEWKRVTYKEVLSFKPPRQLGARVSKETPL

For `Cc1ccc2c(Nc3ccc(Cl)cc3)nccc2c1Nc1ncccc1-c1ncnc2[nH]cnc12.Cl.Cl.Cl`, the Activity [1] was 100%, the Activity [2] was 94% and the Activity [3] was 100%. It also gave an Activity [4] of 88%, an Activity [5] of 98% and a Vd [6] of 1.1 L/kg. For the same molecule, the Activity [7] was 77%, the Activity [8] was 100% and the Activity [9] was 0%. For the same molecule, the Activity [10] was 100%, the Activity [11] was 99% and the Activity [12] was 84%. The Activity [13] was 90%, the Activity [14] was 95% and the Activity [15] was 10%. The Activity [16] was 33%, the Activity [17] was 100% and the Activity [18] was 92%. It also gave an Activity [19] of 47%, an inhibition in vivo at 2 mg/kg (Mus musculus) of 69% and an Activity [20] of 100%. It also gave an Activity [21] of 100%, an Activity [22] of 100% and an Activity [23] of 100%. It also gave an Activity [24] of 42%, a bioavailability [25] of 80% and an Activity [26] of 99%. The Activity [27] was 86%, the Activity [28] was 100% and the Activity [29] was 62%. It also gave an Activity [30] of 6.5%, an Activity [31] of 68% and a Vd [32] of 1.9 L/kg. The Activity [33] was 100%, the Activity [34] was 100% and the Activity [35] was 100%. It also gave an Activity [36] of 100%, an Activity [37] of 90% and an Activity [38] of 99%.

— ChEMBL document CHEMBL1155237, “Selective inhibitors of the mutant B-Raf pathway: discovery of a potent and orally bioavailable aminoisoquinoline” (J Med Chem, 2009)
